{"source": "patent US20250295661A1", "about": "“MENIN-MLL INHIBITORS FOR THE TREATMENT OF CANCER” (Syndax Pharmaceuticals, Inc., priority 2022, published 2025)", "key": {"[1]": {"experiment": "Population PK model simulation of Compound A dosing regimens (one-compartment, first-order absorption, lag time)", "set-up": "species or system human", "experimental": "The rationale for these doses is based on PK data from 53 patients treated in Arm A (no strong cytochrome P450 CYP3A4 inhibitor) and Arm B (with a strong CYP3A4 inhibitor) of Study Compound A which were analyzed with a preliminary population PK model. The model was a one-compartment PK model with first-order absorption (ka) and lag time (Tlag) that described the individual PK data. The data confirmed the expected effect of a strong CYP3A4 inhibitor comedication in Arm B on the drug elimination rate (k) and apparent volume of distribution (Vz/F).\nThe starting dose of 163 mg TID of Compound A alone was selected because it provides Cmax, Cmin, as shown in FIGS. 2A-B, and AUC0-24 approximately half that of 163 mg q12 h with a strong CYP3A4 inhibitor, as shown in FIG. 2C; the lower exposure provides a margin of safety in case CRC patients are more sensitive to the effects of Compound A than acute myeloid leukemia patients. The dose of 276 mg TID is expected to show exposure similar to that for 163 mg q12 h with a strong CYP3A inhibitor based on 3 key PK parameters (Cmax, Cmin, and AUC0-24), as shown in FIGS. 2A-C and Table 3A."}, ">125 molecular targets": {"tested_on": ">125 molecular targets", "experiment": "Off-target screening assays"}, "dogs": {"tested_on": "dogs", "experiment": "GLP 28-day dog toxicology study / QTc in dogs", "type": "in vivo"}, "rats": {"tested_on": "rats", "experiment": "GLP 28-day rat toxicology study", "type": "in vivo"}}}
{"smiles": "CCN(C(=O)c1cc(F)ccc1Oc1cncnc1N1CC2(CCN(C[C@H]3CC[C@H](NS(=O)(=O)CC)CC3)CC2)C1)C(C)C", "note": "[Compound A]", "values": [{"measurement": "Cmax, Cmin and AUC0-24 relative to 163 mg q12 h with a strong CYP3A4 inhibitor", "setting": "[1]; 163 mg TID of Compound A alone", "result": "approximately half"}, {"measurement": "Exposure (Cmax, Cmin, AUC0-24) compared with 163 mg q12 h with a strong CYP3A inhibitor", "setting": "[1]; 276 mg TID without CYP3A4 inhibitor", "result": "similar"}, {"measurement": "Cross-reactivity in off-target screening", "setting": ">125 molecular targets", "result": "no cross-reactivity"}, {"measurement": "Potential main targeted organ of toxicity: heart", "setting": "dogs; 28-day dog toxicology study", "result": "electrocardiogram [ECG] changes in dogs"}, {"measurement": "Potential main targeted organs of toxicity (other)", "setting": "dogs; 28-day rat and dog toxicology studies, dog", "result": "liver, bone marrow, lymphoid tissues, male reproductive system, and female reproductive system"}, {"measurement": "QTc finding in dogs", "setting": "dogs; dogs treated with Compound A", "result": "Prolonged QTc"}, {"measurement": "Potential main targeted organs of toxicity (other)", "setting": "rats; 28-day rat and dog toxicology studies, rat", "result": "liver, bone marrow, lymphoid tissues, male reproductive system, and female reproductive system"}, {"measurement": "Potential main targeted organ of toxicity: eyes", "setting": "rats; 28-day rat toxicology study", "result": "cataracts in rats only"}]}
